# According to patent publication EP3552605A1 (priority 2018, dated 2019):
# Entries after “also recorded” stand apart in the source; their conditions may differ. Where two headings read alike, the source gives them in different places.
# Key:
# [1] = cited from earlier work
# [2] = biological target: mu opioid receptor (Homo sapiens, UniProt P35372); conditions: cited from earlier work
# [3] = test system: senescent ARPE-1 cells; test: toxicity towards senescent ARPE-1 cells (GIEMSA staining, microscopy); assay type: cell-based, human; conditions: 10 µM, 48 hours; senescence induced by 200nM aphidicolin for three weeks; Figure 1
# Protocol: (§1) hTERT RPE-1 human retinal epithelial cell line was obtained from ATTC. Cells were grown in DMEM medium (Sigma Aldrich) supplemented with 10% fetal bovine serum (FBS) and antibiotics (penicillin-streptomycin). MRC-5 human lung fibroblast cell line was obtained from ATTC. Cells were grown in DMEM (Sigma Aldrich) supplemented with 10% FBS and antibiotics (penicillin-streptomycin).
# (§2) In human ARPE-1 human epithelial cells, senescence response - manifested by loss of proliferation, typical morphological changes and Senescence Associated Beta-galactosidase positivity - was induced by exposition to replication stress for prolonged time period. The induction involved 200nM aphidicolin continual treatment for three weeks. The senescent cells have been exposed to various doses of MCOPPB dissolved in water for 48 hours, the dose range spanned 100 nM - 50 µM. The number of surviving cells was evaluated immediately after the treatment either using GIMSA staining and microscopy-based evaluation of surviving cells and compared to parental exponentially growing ARPE-1 cells, which were exposed to MCOPPB as well. Control samples of senescent and parental cells, without MCOPPB treatment, were assessed, too. […]
# [4] = animal studies, cited from earlier work
# [5] = biological target: kappa opioid receptor (Homo sapiens, UniProt P41145); conditions: cited from earlier work
# Chain of kappa opioid receptor (P41145 whole entry): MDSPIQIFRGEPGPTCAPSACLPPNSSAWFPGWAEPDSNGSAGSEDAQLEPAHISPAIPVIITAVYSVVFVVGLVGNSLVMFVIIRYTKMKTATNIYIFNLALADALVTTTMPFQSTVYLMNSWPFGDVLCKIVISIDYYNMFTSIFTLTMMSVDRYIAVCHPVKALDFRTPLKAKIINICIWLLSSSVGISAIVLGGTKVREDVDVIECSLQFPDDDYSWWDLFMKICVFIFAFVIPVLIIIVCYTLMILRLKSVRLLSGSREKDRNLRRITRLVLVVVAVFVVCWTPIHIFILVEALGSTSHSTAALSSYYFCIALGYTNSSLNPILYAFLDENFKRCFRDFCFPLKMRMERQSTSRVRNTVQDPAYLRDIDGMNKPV
# [6] = oral dose of 10 mg/kg; cited from earlier work
# [7] = biological target: delta opioid receptor (Homo sapiens, UniProt P41143); conditions: cited from earlier work
# Chain of delta opioid receptor (P41143 whole entry): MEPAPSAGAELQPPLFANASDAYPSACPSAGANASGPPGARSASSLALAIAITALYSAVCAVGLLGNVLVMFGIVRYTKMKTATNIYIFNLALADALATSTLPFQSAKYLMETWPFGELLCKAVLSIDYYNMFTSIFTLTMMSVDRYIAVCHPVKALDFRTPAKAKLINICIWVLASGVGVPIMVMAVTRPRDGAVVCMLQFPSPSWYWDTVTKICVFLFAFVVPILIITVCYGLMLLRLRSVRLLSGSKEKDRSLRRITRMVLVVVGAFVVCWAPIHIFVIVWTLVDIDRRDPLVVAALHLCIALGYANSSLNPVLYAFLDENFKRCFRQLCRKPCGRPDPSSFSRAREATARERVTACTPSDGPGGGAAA
# [8] = test system: senescent cells (p16 positive cells); test: elimination of senescent cells in p16 luciferase reporter mouse; assay type: in vivo
# Protocol: Reporter GMO mouse with integrated luciferase reporter under p16 promoter allows monitoring of aging on the molecular level by an increase of luminescence signal due to the accumulation of senescent cells (this mouse model is described in details in: Cell. 2013 Jan 17;152(1-2):340-51). Application of senolytics targets the p16 positive cells and leads to decrease in the luminescent signal. Naturally aged reporter mice were treated by the MCOPPB compound and luminescence signal level was measured over time.
# [9] = tolerance of long term application in vivo; design: species or system mice (C57B1/6 strain); conditions: five weeks, regime 5 + 2, female mice aged 42 weeks
# Protocol: Female mice (C57B1/6 strain) at the age of 42 weeks were treated by intraperitoneal application of MCOPPB (10 mg/kg and 20 mg/kg) dissolved in phosphate buffer or by the buffer alone (vehicle) for five weeks in the regime 5 + 2 (5 days with the treatment, two days without) and followed for another two weeks. The weight and another physiological factors reflecting overall fitness were monitored.
# [10] = test system: parental (normal healthy) ARPE-1 cells; test: toxicity towards parental ARPE-1 cells (GIEMSA staining, microscopy); assay type: cell-based, human; conditions: 10 µM, 48 hours; Figure 1
# Protocol: as §1, §2
# [11] = p.o., cited from earlier work
# [12] = biological target: T1, NOP receptor in the mouse brain (Mus musculus, UniProt P35377); conditions: 10 mg/kg, p.o.; ex vivo; cited from earlier work
# T1 construct: from tissue; host or cells: mouse brain
# T1 sequence (P35377 whole entry): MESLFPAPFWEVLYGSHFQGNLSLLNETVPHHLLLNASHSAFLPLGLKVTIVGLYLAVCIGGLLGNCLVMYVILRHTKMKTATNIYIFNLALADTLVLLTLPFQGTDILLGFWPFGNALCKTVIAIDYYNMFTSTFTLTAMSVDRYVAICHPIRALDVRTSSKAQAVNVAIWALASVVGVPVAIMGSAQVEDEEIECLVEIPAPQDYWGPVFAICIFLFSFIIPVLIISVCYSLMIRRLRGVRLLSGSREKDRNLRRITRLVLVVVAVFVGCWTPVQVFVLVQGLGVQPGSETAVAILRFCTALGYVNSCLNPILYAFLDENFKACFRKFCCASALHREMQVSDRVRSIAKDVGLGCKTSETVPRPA
# [13] = test system: senescent MRC5 cells; test: toxicity towards senescent MRC5 cells (GIEMSA staining, microscopy); assay type: cell-based, human
# Protocol: as §1
# In human MRC-5 fibroblasts cells, senescence response - manifested by loss of proliferation, typical morphological changes and Senescence Associated Beta-galactosidase positivity - was induced by exposition to gamma radiation. The induction involved a single irradiation, total dose 15 Gy using Xstrahl RS 225 M RTG device set to 200KV 15mA (dose 3.8Gy/min). […] The number of surviving cells was evaluated immediately after the treatment either using GIMSA staining and microscopy-based evaluation of surviving cells and compared to parental exponentially growing MRC-5 cells.
# [14] = dose not stated; cited from earlier work
# Chain of mu opioid receptor (P35372 whole entry, species assumed): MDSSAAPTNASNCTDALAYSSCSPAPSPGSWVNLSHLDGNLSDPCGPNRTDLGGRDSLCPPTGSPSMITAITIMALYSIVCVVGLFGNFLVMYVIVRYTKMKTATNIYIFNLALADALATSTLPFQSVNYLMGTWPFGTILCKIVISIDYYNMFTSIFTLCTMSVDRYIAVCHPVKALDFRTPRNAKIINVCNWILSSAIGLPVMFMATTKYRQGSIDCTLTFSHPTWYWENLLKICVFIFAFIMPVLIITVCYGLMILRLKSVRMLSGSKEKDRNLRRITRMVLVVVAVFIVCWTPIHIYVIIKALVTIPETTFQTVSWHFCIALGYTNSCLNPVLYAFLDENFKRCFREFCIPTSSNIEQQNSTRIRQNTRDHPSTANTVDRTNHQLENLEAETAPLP
compound,measurement,setting,value
"CC1(N2CCC(n3c([C@@H]4CCCNC4)nc4ccccc43)CC2)CCCCCCC1 [MCOPPB, 1-[1-(1-methylcyclooctyl)-4-piperidinyl]-2-[(3R)-3-piperidinyl]-1H-benzimidazole]",memory,[1]; oral dose of 10 mg/kg,did not affect
same,affinity for the mu opioid receptor,[2],moderate affinity
same,toxicity towards the senescent cells,[3],cell deterioration and cell loss; also recorded: selective toxicity
same,sedative side effects,[4]; appear only at much higher doses than the effective anxiolytic dose range,only slight sedative side effects
same,anxiolytic effects,[4],potent anxiolytic effects
same,inhibition of memory or motor function,[4],no inhibition of memory or motor function
same,affinity for the kappa opioid receptor,[5],weak affinity
same,locomotor activity,[6],did not affect
same,binding at the delta opioid receptor,[7],negligible binding
same,whole body luminescent signals,"[8]; 12-16 months old p16 reporter mice, treated for two weeks, versus vehicle, Figure 6",decrease of the luminescence signal
same,whole body luminescent signal,"[8]; 12 month old p16 reporter mouse, after three weeks of treatment, Figure 5",rapid decrease of the signal
same,luminescence signal,"[8]; naturally aged reporter mice, compared to controls, figures 5 and 6",decrease in the luminescence signal
same,tolerance by the animals,[9]; 10 mg/kg intraperitoneal,well tolerated
same,tolerance by the animals,[9]; 20 mg/kg intraperitoneal,well tolerated
same,adverse effects on the parental cells,[10],no adverse effects
same,anxiolytic-like effects,[11]; 10 mg/kg,elicited anxiolytic-like effects
same,anxiolytic effect after repeated administration,"[11]; 10 mg/kg, repeated administration for 5 days",still effective as an anxiolytic agent
same,shape of response curve,[11],bell-shaped response curve
same,signaling through the NOP receptor in the mouse brain,[12],inhibited signaling
same,toxicity towards the senescent cells,"[13]; 5 µM, 48 hours, senescence induced by gamma radiation 15 Gy, Figure 3",selective toxicity
same,toxicity towards the senescent cells,[13]; 10µM for 48 hours (legend of Figure 3),cell deterioration and cell loss
"CN1C(=O)CN=C(c2ccccc2)c2cc(Cl)ccc21 [diazepam, reference compound]",memory,[1]; dose not stated,caused memory deficits
same,ethanol-induced hypnosis,[14],enhanced ethanol-induced hypnosis
same,anxiolytic-like effects,[11]; 3 mg/kg,elicited anxiolytic-like effects
